Test results published in patent publication US7105573B2, “Methods and compositions for the treatment of alopecia and other disorders of the pilosebaceous apparatus” (Orentreich Foundation for the Advancement of Science, Inc., priority 2000, dated 2006).
Counter-ions that a name gives are not always drawn. Like-named read-outs stand apart in the source and are kept apart here.

Key:
[1] = tested on: hair loss in C57BL/6J Lep (ob) female mice; assay: Oral troglitazone ob/ob female mice study (Example 6); assay type: in vivo; conditions: 350 days; 0.2% troglitazone in diet; control 100%
Description: This study involved oral administration of troglitazone (Rezulin®) to C57BL/6J Lep (ob) female mice.
Non-alopecic female ob/ob mice (7 weeks at start of study) are maintained on a photoperiod of 12 h light:12 h dark. Food (Purina 5001 Meal diet or Purina 5001 with 0.2% troglitazone) and water (acidified pH 2.5) are provided ad libitum.
Troglitazone (Rezulin®) is purchased from Parke-Davis (Morris Plains, NJ) in tablet form. The entire tablet (including the coat) is crushed in a blender prior to being incorporated into the diet. The amount of troglitazone added to the diet is adjusted to account for the weight of the tablet and the actual amount of the drug (400 mg/tablet) incorporated into the tablet.
The progression of hair loss is monitored by the investigator on a weekly to biweekly basis. The dorsal hair coat is photographed on a monthly basis to chart the onset and/or progression of alopecia.

[2] = tested on: skin of the hairless mouse; assay: Skin redness in hairless mouse, 11 days of treatment; assay type: in vivo; conditions: 50 μL, 2× per day
[3] = Description: For production of the test materials described herein, it is dissolved in water to twice the desired final concentration, then mixed with an equal volume of a solution of 4% butylene glycol in special denatured alcohol (SDA) for a final concentration of 50% SDA and 2% butylene glycol. […] Preferred concentrations are about 0.8% to about 2.0%.
(§1) If more neutral solutions are required, a penetration enhancing agent should be used to help deliver the drug to the dermis. […] Some, like dimethylsulfoxide (DMSO), are applied to the skin for 10–15 minutes prior to administration of the drug, while others, such as myristylamine oxide (MAO), SEPA and N-methyl pyrrolidone (NMP), can be added to the inventive composition in the appropriate concentration before applying to the skin.
It is important to remove the salts that are produced during this process. Therefore, the mixture is lyophilized, and the dry powder reconstituted in absolute ethanol.

[4] = remark: listed apart in the source
Description: as §1

[5] = Skin irritation of metformin base and salts in 50% SDA / 2% butylene glycol vehicle; assay type: in vivo; conditions: applied in 50% SDA, 2% butylene glycol in water
[6] = tested on: hair loss in aged female obese (C57BL/6J-ob/ob) mice; assay: Oral metformin and hair loss in aged female obese mice (Example 1); assay type: in vivo
Description: The objective of the experiments in this Example is to examine the effects of the biguanide […] metformin on hair loss in aged female obese (C57BL/6J-ob/ob) mice. The hypothesis tested is that metformin, when administered in these mice at a relatively young age, will increase insulin sensitivity, thereby preventing or slowing the progression of hair loss.
Animals: Female C57BL/6J Lep , ob/ob. (homozygous) and C57BL/6J Lep <ob/+> (heterozygous) mice are purchased from the Jackson Laboratory (Bar Harbor, Me.). All animals are housed at a density of 2–3 animals per cage and are maintained on a photoperiod of 12 h light: 12 h dark. Food and water are provided ad libitum.
The dosage is adjusted each week to reflect changes in body weight. Since the animals are group housed, the adjustment is made based on the mean weight of the treatment group, rather than on an animal-to-animal basis. The water is changed twice per week. Periodically the concentration of the metformin in the drinking water is verified by HPLC.
Experimental groups: The ob/+ animals are not entered into the study until two weeks after the ob/ob mice. […] Thus, once the ob/+ are 7 weeks of age, they are entered in the study.
Parameters monitored: Body weight, food and water consumption are monitored twice per week. Blood samples are collected from the orbital sinus of unanesthesized mice at the baseline and on a monthly basis for the duration of the study. These blood collections are designed to monitor serum glucose and insulin levels. C-peptide and insulin-like growth factor 1 (IGF-1) are also monitored periodically throughout the study. Blood samples for C-peptide analysis are collected following an overnight fast. Selected animals are photographed throughout the study to document the slowing or progression of hair loss.

[7] = tested on: obese (ob/ob -Thieller background) mouse; conditions: 240 mg/kg/d in drinking water for 4 weeks; cited from earlier work
[8] = tested on: alopecic female ob/ob mice; assay: Topical biguanide / metformin hair growth in obese (ob/ob) mouse model (Example 3); assay type: in vivo
Description: When pharmaceutically acceptable salts of biguanide were applied in reasonable concentrations (e.g., about 0.5% to about 10%) in a suitable topical vehicle (e.g., solution, tincture, gel, lotion, cream or ointment) containing a suitable penetration enhancing agent (e.g., surfactant, DMSO, N-methyl pyrrolidone), the growth of hair was stimulated in the obese (ob/ob) mouse model.
Two alopecic female ob/ob mice were treated with 0.8% topical metformin for three months beginning at 13 months of age. Applications of 50 ul were made twice per day (except weekends) to the alopecic (intrascapular) site.

[9] = tested on: age-dependent hair loss in female ob/ob (obese) mice; assay: Oral metformin hydrochloride and age-dependent hair loss in female ob/ob mice (Example 5); assay type: in vivo
Source text: Twenty-one female C57BL/6J ob/ob mice were purchased from the Jackson Laboratory (Bar Harbour, Me.) at five weeks of age. […] Dosages were adjusted on a weekly basis to reflect changes observed in body weight. All animals were group housed and were allowed access to standard laboratory chow and water ad libitum. The progression of hair loss was documented throughout the study.

Cc1c(C)c2c(c(C)c1O)CCC(C)(COc1ccc(CC3SC(=O)NC3=O)cc1)O2 (stereo not shown) [troglitazone]
animals exhibiting some degree of hair loss [1]: 60%

CCCCCCCCCCC1COC(=O)N1 (stereo not shown) [SR-38, 4-decyloxazolidin-2-one]
redness on the skin [2]: only mild, temporary redness

N=C(N)NC(=N)N [Biguanide, Biguanide (NH2C(═NH)NHC(═NH)NH2)]
long-term chemical stability in water [3]: limited long-term chemical stability in water | solubility in water [3]: water soluble

CN(C)C(=N)NC(=N)N [Metformin base]
absorbed through skin [4]: 75%–88% | irritation to the skin [5]: significant irritation

CN(C)C(=N)N=C(N)N [metformin]
onset of hair loss ([6]; female ob/ob mice, 240 mg/kg/d in drinking water): delayed | hair loss in ob/+ mice ([6]; ob/+ (heterozygous) mice, 240 mg/kg p.o.): not observed | hair loss observed (% of animals affected) ([6]; ob/ob mice at 10 months of age (nearly 8 months of treatment), 240 mg/kg p.o., control 36%): 8% | concentration of hepatocyte high and low affinity insulin receptors [7]: increase | hypoglycemic response to exogenous insulin [7]: did not alter | plasma insulin levels [7]: lowered | penetration of the applied metformin dose [4]: up to 20% | share of composition passing through the dermis [4]: over 90% | pigmentation at the alopecic site (onset of anagen) ([8]; 0.8% topical, 50 ul twice per day, after two months of treatment, two alopecic female ob/ob mice, 13 months of age at start): presence of pigmentation at the alopecic site | emergence of new hairs at the alopecic site ([8]; 0.8% topical, the week following two months of treatment): small hairs emerging from the skin | persistence of new hairs after withdrawal of treatment ([8]; observed for 6 weeks after the three-month treatment): new hairs remained intact

CN(C)C(=N)N=C(N)N.O=C(O)c1cc2ccccc2c(Cc2c(O)c(C(=O)O)cc3ccccc23)c1O [Metformin pamoate, metformin pamoate]
absorbed through skin [4]: < 1% | penetration on addition of SR-38 to the formula [4]: similarly improved | irritation to the skin [5]: no irritation

CN(C)C(=N)N=C(N)N [Metformin HCl, Metformin hydrochloride]
incidence of hair loss ([9]; 300 days of age, controls about 40%): about 20% | incidence of hair loss ([9]; 370 days of age, excluding animals with only possible thinning of the hair coat, controls greater than 60%): 30% | onset of hair loss ([9]; female ob/ob mice, 240 mg/kg/d in acid water): delayed | incidence of spontaneous skin condition (may resemble acanthosis nigricans or migratory ichthyosis) ([9]; relative to control animals, the majority of which were affected): markedly less incidence | penetration to the dermis as a function of pH [4]: improves as pH increases | absorbed through skin ([4]; 6 h): < 1% | percutaneous absorption (absorbed) ([4]; 6 h): <1% | irritation to the skin [5]: no irritation
